Reference: patent US10021901B2, “Antimicrobial mixture of aldehydes, organic acids and fatty acid esters” (ANITOX CORPORATION, priority 2011, dated 2018)
≈ marks a conversion by molar mass, not a printed value. Like-named read-outs stand apart in the source and are kept apart here.

Columns and labels:
[1] = test system: Salmonella typhimurium (ATTC:14028); test: Organic acid esters against Salmonella typhimurium in test tubes (Example 1); format: cell-based; details: for killing at 0.01 % / killing at 0.05 %: Salmonella enterica, TYPHIMURIUM, read-out: Reduction (% Reduction) of Salmonella typhimurium in vitro
Protocol: Methyl and ethyl esters of organic acids were added to test tubes at concentrations of 0.01% and 0.05%. Tubes were vortexed for 10 seconds to uniformly mix the solution. A suspension of Salmonella typhimurium (ATTC:14028) was added to each test tube to achieve a final concentration of 10^4 cfu/ml. The solutions were vortexed, incubated at room temperature for 24 hours and plated on XLT-4 agar. Plates were incubated for 48 hours at 37° C. before enumerating colonies.

M. gypseum = details: cited from earlier work
[2] = test system: yeast (10^5 CFU/bottle) in beverages; details: cited from earlier work
[3] = test system: Helicobacter pylori and S. cholerasuis; details: Kubo 1999; Kubo and Fujita 2001; cited from earlier work
[4] = test system: B. cereus, S. typhimurium, V. parahaemolyticus, L. monocytogenes, S. aureus and E. coli O157:H7; details: cited from earlier work
P. syringae pathovars = details: vapour; cited from earlier work
E. coli = details: vapour; cited from earlier work
Phoma mycelium = details: cited from earlier work
Penicillium expansum = details: blue mold; cited from earlier work
[5] = test system: A. flavus, P. notatum, A. alternate, F. oxysporum, Cladosporium spp., B. subtilis and A. tumerfaciens; details: cited from earlier work
[6] = test system: apricots, peaches and nectarines; details: cited from earlier work
[7] = test system: Staphylococcus aureus, E. coli and Salmonella typhimurium; details: cited from earlier work
[8] = Ethyl Ester, 0.01% Dilution, 24 hours room temperature, compared to control
[9] = Ethyl Ester, 0.05% Dilution, 24 hours room temperature, compared to control
[10] = Methyl Ester, 0.01% Dilution, 24 hours room temperature, compared to control
[11] = Methyl Ester, 0.05% Dilution, 24 hours room temperature, compared to control

Q: Which results are given for `CCCCCCCCCCCCCC(=O)OCC`?
A: Reduction (% Reduction) of Salmonella typhimurium in vitro [1, 8]: 12%; Reduction (% Reduction) of Salmonella typhimurium in vitro [1, 9]: 8%

Q: Which results are given for `CCCCCCCCCCCCCC(=O)OC`?
A: Reduction (% Reduction) of Salmonella typhimurium in vitro [1, 10]: 43%; Reduction (% Reduction) of Salmonella typhimurium in vitro [1, 11]: 49%

Q: For `CCOC(C)=O` [Acetic acid Ethyl Ester], which killing at 0.01 % [1, 8] is on record?
A: Its killing at 0.01 % is 0%.

Q: What about the killing at 0.05 % [1, 9] of the same compound?
A: Its killing at 0.05 % is 0%.

Q: Which results are given for `COC(C)=O` [Acetic acid Methyl Ester]?
A: killing at 0.01 % [1, 10]: 0%; killing at 0.05 % [1, 11]: 29%

Q: What does the source list for `CCOC(=O)c1ccccc1` [Benzoic acid Ethyl Ester, Ethyl benzoate]?
A: killing at 0.01 % ([1]; 24 h): 100%; killing at 0.05 % ([1]; 24 h): 100%

Q: What does the source list for `COC(=O)c1ccccc1` [Benzoic acid Methyl Ester, Methyl benzoate]?
A: killing at 0.01 % ([1]; 24 h): 34%; killing at 0.05 % ([1]; 24 h): 100%

Q: Which results are given for `CCCC(=O)OCC` [Butyric acid Ethyl Ester, Ethyl butyrate]?
A: killing at 0.01 % [1, 8]: 28%; killing at 0.05 % [1, 9]: 100%

Q: Which killing at 0.01 % ([1]; 24 h) does the source give for `CCCC(=O)OC` [Butyric acid Methyl Ester] here?
A: The killing at 0.01 % was 0%.

Q: What about the killing at 0.05 % ([1]; 24 h) of the same compound?
A: The killing at 0.05 % was 28%.

Q: For `CCCCCCCCCC(=O)OCC` [Capric (decanoic) acid Ethyl Ester], which “Reduction (% Reduction) of Salmonella typhimurium in vitro” value (“Reduction (% Reduction)” below) [1, 8] is on record?
A: Its value is 0%.

Q: And the “Reduction (% Reduction)” value [1, 9]?
A: Its value is 0%.

Q: With `CCCCCCCCCC(=O)OC` [Capric (decanoic) acid Methyl Ester] as the compound, how does the “Reduction (% Reduction)” value [1, 10] read?
A: The value was 8%.

Q: And the “Reduction (% Reduction)” value [1, 11]?
A: Its value is 0%.

Q: Which results are given for `CCCCCC(=O)OCC` [Caproic (hexanoic) acid Ethyl Ester, Ethyl hexanoate]?
A: killing at 0.01 % [1, 8]: 100%; killing at 0.05 % [1, 9]: 100%

Q: Which killing at 0.01 % [1, 10] does the source give for `CCCCCC(=O)OC` [Caproic (hexanoic) acid Methyl Ester, Methyl hexanoate] here?
A: Its killing at 0.01 % is 99%.

Q: What about the killing at 0.05 % [1, 11] of the same compound?
A: Its killing at 0.05 % is 100%.

Q: With `CCCCCCCC(=O)OCC` [Caprylic (octanoic) acid Ethyl Ester] as the compound, how does the “Reduction (% Reduction)” value [1, 8] read?
A: Its value is 66%.

Q: What about the “Reduction (% Reduction)” value [1, 9] of the same compound?
A: Its value is 65%.

Q: With `CCCCCCCC(=O)OC` [Caprylic (octanoic) acid Methyl Ester, Methyl octanoate] as the compound, how does the killing at 0.01 % [1, 10] read?
A: Its killing at 0.01 % is 94%.

Q: What about the killing at 0.05 % [1, 11] of the same compound?
A: Its killing at 0.05 % is 94%.

Q: What does the source list for `COC=O` [Formic acid Methyl Ester]?
A: killing at 0.01 % [1, 10]: 0%; killing at 0.05 % [1, 11]: 5%

Q: Which “Effectiveness against Salmonella in words” value ([1]; 0.01% and 0.05%) does the source give for `CC(=O)OCCC(C)C` [Isoamyl acetate] here?
A: Its value is “bactericidal activity”.

Q: What about the killing at 0.01 % ([1]; isoamyl acetate itself, 0.01% Dilution, 24 hours) of the same compound?
A: Its killing at 0.01 % is 44%.

Q: And the killing at 0.05 % ([1]; isoamyl acetate itself, 0.05% Dilution, 24 hours)?
A: Its killing at 0.05 % is 100%.

Q: Which killing at 0.01 % [1, 10] does the source give for `COC(=O)C(C)C` [Isobutyric acid Methyl Ester] here?
A: The killing at 0.01 % was 3%.

Q: And the killing at 0.05 % [1, 11]?
A: The killing at 0.05 % was 41%.

Q: Which killing at 0.01 % [1, 8] does the source give for `CCOC(=O)CC(C)C` [Isovaleric acid Ethyl Ester] here?
A: Its killing at 0.01 % is 61%.

Q: And the killing at 0.05 % [1, 9]?
A: Its killing at 0.05 % is 100%.

Q: For `CCCCCCCCCCCC(=O)OCC` [Lauric (dodecanoic) acid Ethyl Ester], which “Reduction (% Reduction)” value [1, 8] is on record?
A: Its value is 0%.

Q: And the “Reduction (% Reduction)” value [1, 9]?
A: The value was 0%.

Q: For `CCCCCCCCCCCC(=O)OC` [Lauric (dodecanoic) acid Methyl Ester, Methyl laurate], which killing at 0.01 % [1, 10] is on record?
A: The killing at 0.01 % was 1%.

Q: And the killing at 0.05 % [1, 11]?
A: The killing at 0.05 % was 0%.

Q: What does the source list for `CCOC(=O)CCC(C)=O` [Levulinic acid Ethyl Ester]?
A: killing at 0.01 % [1, 8]: 0%; killing at 0.05 % [1, 9]: 8%

Q: What does the source list for `COC(=O)CCC(C)=O` [Levulinic acid Methyl Ester]?
A: killing at 0.01 % [1, 10]: 0%; killing at 0.05 % [1, 11]: 12%

Q: For `CCCCC/C=C\C/C=C\CCCCCCCC(=O)OCC` [Linoleic acid Ethyl Ester], which killing at 0.01 % [1, 8] is on record?
A: The killing at 0.01 % was 0%.

Q: What about the killing at 0.05 % [1, 9] of the same compound?
A: The killing at 0.05 % was 0%.

Q: For `CCCCC/C=C\C/C=C\CCCCCCCC(=O)OC` [Linoleic acid Methyl Ester, methyl linoleate], which killing at 0.01 % [1, 10] is on record?
A: Its killing at 0.01 % is 14%.

Q: And the killing at 0.05 % [1, 11]?
A: The killing at 0.05 % was 0%.

Q: Which killing at 0.01 % [1, 8] does the source give for `CCOC(=O)CC(=O)O` [Malonic acid Ethyl Ester] here?
A: Its killing at 0.01 % is 36%.

Q: And the killing at 0.05 % [1, 9]?
A: The killing at 0.05 % was 57%.

Q: With `COC(=O)CC(=O)O` [Malonic acid Methyl Ester] as the compound, how does the killing at 0.01 % [1, 10] read?
A: The killing at 0.01 % was 13%.

Q: And the killing at 0.05 % [1, 11]?
A: The killing at 0.05 % was 9%.

Q: With `CCOC(=O)CC` [Propionic acid Ethyl Ester] as the compound, how does the killing at 0.01 % [1, 8] read?
A: Its killing at 0.01 % is 0%.

Q: And the killing at 0.05 % [1, 9]?
A: The killing at 0.05 % was 40%.

Q: With `CCC(=O)OC` [Propionic acid Methyl Ester] as the compound, how does the killing at 0.01 % ([1]; 24 h) read?
A: The killing at 0.01 % was 9%.

Q: And the killing at 0.05 % ([1]; 24 h)?
A: Its killing at 0.05 % is 19%.

Q: What does the source list for `CCCCC(=O)OCC` [Valeric (pentanoic) acid Ethyl Ester, Ethyl pentanoate]?
A: killing at 0.01 % ([1]; 24 h): 93%; killing at 0.05 % ([1]; 24 h): 100%

Q: For `CCCCC(=O)OC` [Valeric (pentanoic) acid Methyl Ester, Methyl pentanoate], which killing at 0.01 % ([1]; 24 h) is on record?
A: The killing at 0.01 % was 10%.

Q: And the killing at 0.05 % ([1]; 24 h)?
A: The killing at 0.05 % was 100%.

Q: What does the source list for `CCCCCCCCCC(=O)O` [capric acid, reference compound]?
A: minimum inhibitory concentration (MIC) (M. gypseum; liquid media): 75 µg/mL (≈ 435 µM); minimum inhibitory concentration (MIC) (M. gypseum; solid media): 20 µg/mL (≈ 116 µM)

Q: For `CC(C)=CCCC(C)=CC=O` [citral, reference compound], which “equivalent concentration for control of yeast” value ([2]; equivalent to 25 ppm trans-2-hexenal and thermal treatment) is on record?
A: Its value is 100-120 ppm.

Q: For `CCCCCCCCC(=O)O` [nonanoic acid], which “minimum inhibitory concentration (MIC)” value (M. gypseum; liquid media) is on record?
A: Its value is 50 µg/mL (≈ 316 µM).

Q: And the “minimum inhibitory concentration (MIC)” value (M. gypseum; solid media)?
A: The value was 40 µg/mL (≈ 253 µM).

Q: Which minimum biocidal activity [3] does the source give for `CCC/C=C/C=O` [trans-2-hexenal] here?
A: The minimum biocidal activity was 800 µg/mL.

Q: And the minimum inhibitory activity [3]?
A: The minimum inhibitory activity was 400 µg/mL.

Q: What about the effective concentration [4] of the same compound?
A: The effective concentration was 247 mg/L.

Q: What about the “concentration that completely inhibited proliferation” value (P. syringae pathovars) of the same compound?
A: Its value is 570 μg/L of air.

Q: And the “concentration that completely inhibited proliferation” value (E. coli)?
A: The value was 930 micrograms/L of air.

Q: And the “concentration effective on inhibiting growth” value (Phoma mycelium)?
A: Its value is 250 µg/mL.

Q: What about the “concentration effective on controlling Penicillium expansum” value (Penicillium expansum) of the same compound?
A: The value was 12.5 μl/l.

Q: What about the “concentration that completely inhibited growth” value [5] of the same compound?
A: The value was 8 ng/l air.

Q: And the “concentration necessary to control microorganisms” value ([2]; beverages not thermally treated)?
A: Its value is 35 ppm.

Q: And the “concentration for control of yeast” value ([2]; with thermal treatment (56° C. for 20 min), equivalent to citral)?
A: The value was 25 ppm.

Q: And the phytotoxicity ([6]; apricots)?
A: The phytotoxicity was “not phytotoxic”.

Q: And the phytotoxic concentration ([6]; peaches and nectarines)?
A: Its phytotoxic concentration is 40 μl/l.

Q: For `CC/C=C/CC=O` [trans-3-hexenal], which “level effective in controlling bacteria” value [7] is on record?
A: Its value is 3 to 30 µg/mL.
